{"source": "patent US8354428B2", "about": "“Solid state forms of laquinimod and its sodium salt” (Actavis Group PTC EHF, priority 2008, dated 2013)", "type_in_all_cases": "physicochemical", "key": {"[1]": {"test": "Tap density method of analysis (Sotax tapping instrument, USP II)", "conditions": "about 10 g sample, tapped to constant volume", "method": "About 10 g of sample was placed in a 25 mL measuring cylinder and measured the initial volume. The measuring cylinder was kept in a Sotax Tapping instrument (USP II) and measured the volume of the sample every 50 tappings until a constant volume is obtained using the following formula: Tap Density=Weight of the sample (g)/constant Volume of the sample after tapping (mL)"}, "[2]": {"test": "Bulk density method of analysis", "conditions": "about 10 g sample in 25 mL measuring cylinder", "method": "(§1) The X-Ray powder diffraction was measured by an X-ray powder diffractometer equipped with a Cu-anode (λ=1.54 Angstrom), X-ray source operated at 40 kV, 40 mA and a Ni filter is used to strip K-beta radiation. Two-theta calibration is performed using an NIST SRM 1976, Corundum standard. The sample was analyzed using the following instrument parameters: measuring range=3-45° 20; step width=0.01579°; and measuring time per step=0.11 second. Infra-Red Spectroscopy (FT-IR): FT-IR spectroscopy was carried out with a Perkin Elmer Spectrum 100 series spectrometer. For the production of the KBr compacts approximately 2 mg of sample was powdered with 200 mg of KBr. The spectra were recorded in transmission mode ranging from 3800 to 450 cm^−1. Differential Scanning Calorimetry (DSC): DSC (Differential Scanning calorimetry) measurements were performed with a Differential Scanning calorimeter (Perkin Elmer diamond DSC) at a scan rate of 10° C. per minute. Bulk Density Method of Analysis About 10 g of sample was placed in a 25 mL measuring cylinder and measured the volume using the following formula: Bulk density=Weight of the sample (g)/Volume of the sample (mL) Tap Density Method of Analysis"}, "[3]": {"test": "Particle size distribution by laser diffraction (Malvern Master Sizer 2000)", "conditions": "90 volume-percent of particles below this diameter", "from_the_text": "As used herein, “Particle Size Distribution (P.S.D)” means the cumulative volume size distribution of equivalent spherical diameters as determined by laser diffraction in Malvern Master Sizer 2000 equipment or its equivalent. As used herein, DX means that X percent of the particles have a diameter less than a specified diameter D. Thus, a D90 or d(0.9) of less than 300 microns means that 90 volume-percent of the particles in a composition have a diameter less than 300 microns."}, "[4]": {"test": "Polymorphic stability on storage in LDPE bag, checked by P-XRD", "method": "as §1\nLaquinimod sodium crystalline Form A1 was prepared according to the process exemplified in Example 2 and was packed in a self-sealing low-density polyethylene (LDPE) bag. […]"}}}
{"compound": "CCN(C(=O)c1c(O)c2c(Cl)cccc2n(C)c1=O)c1ccccc1.[Na]", "note": "[laquinimod sodium crystalline Form A1, N-ethyl-N-phenyl-1,2-dihydro-4-hydroxy-5-chloro-1-methyl-2-oxoquinoline-3-carboxamide sodium]", "values": [{"measurement": "Tapped density", "setting": "[1]", "value": 0.476, "unit": "g/mL"}, {"measurement": "Bulk density", "setting": "[2]", "value": 0.333, "unit": "g/mL"}, {"measurement": "Particle size distribution d(0.9)", "setting": "[3]", "value": 26.3, "unit": "microns"}, {"measurement": "Polymorphic stability (maintenance of the original P-XRD pattern)", "setting": "[4]; stored 3 months at about 40±2° C., relative humidity about 75±5%", "value": "retain its polymorphic form"}, {"measurement": "Polymorphic stability (maintenance of the original P-XRD pattern)", "setting": "[4]; stored 6 months at 25±2° C., relative humidity about 60±5%", "value": "retain its polymorphic form"}]}
